Measured values as given in patent US3982931A, “N,N-di-sec.butyl-benzamide herbicides” (priority 1967, dated 1976).

How the values were obtained:
chenopodium album L. = experiment: herbicidal activity, soil treatment one day after sowing; assay type: in vivo
oryza sativa L. (rice) = experiment: activity on agrarian species, soil treatment one day after sowing; assay type: in vivo; settings: in vivo
Description: (§1) The infesting species and the agrarian species have been indicated in Table 1 by letters, as follows:
P = oryza sativa L. (rice)
(§2) Method of evaluation of the results (of tests):
(§3) 0 = no activity and no difference with respect to the control;
(§4) 1 slight differences with respect to the control;
(§5) 3 = considerable activity with damages that definitely impair the further development of most of the small plants; an activity degree already useful for practical purposes;
(§6) 4 = maximum of activity with lack of germination or total containment of the small plants in the emerging stage.
(§7) In the case of an intermediate activity between two classes of the scale, both values are recorded with the one which corresponds to the preeminent activity preceding.
(§8) TABLE 2 reports the activity data of other compounds that fall within the class which is the object of this invention.
(§9) TABLE 3 reports data on the herbicidal activity against infesting herbs, while TABLE 4 reports data concerning the activity on useful species of agricultural cultivations. These tables employ the criterion explained previously. The product was spread on the soil one day after sowing, in quantities of 1, 3, 6, 8, 10, 12 and 14 kg/ha.

artemisia vulgaris L. = experiment: herbicidal activity, soil treatment one day after sowing; assay type: in vivo
[1] = test system: amaranthus retroflexus L.; experiment: as above; assay type: in vivo
pisum sativum L. (pea) = experiment: activity on agrarian species, soil treatment one day after sowing; assay type: in vivo; settings: in vivo
Description: as §1
L = pisum sativum L. (pea)
as §2, §3, §4, §5, §6, §7, §8
TABLE 3 reports data on the herbicidal activity against infesting herbs, while TABLE 4 reports data concerning the activity on useful species of agricultural cultivations. These tables employ the criterion explained previously. […]

avena sativa (oats) = experiment: as above; assay type: in vivo, Avena sativa L.; settings: in vivo
Description: as §1, §2, §3, §4, §5, §6, §7, §8, §9

solanum Lycopersicum L. = experiment: as above; assay type: in vivo; settings: in vivo
Description: as §1
M = solanum Lycopersicum L.
as §2, §3, §4, §5, §6
In the case of an intermediate activity between two classes of the scale, both values are recorded with the one which corresponds to the preeminent activity preceding. […]

zea mais L. (corn) = experiment: as above; assay type: in vivo; settings: in vivo
Description: as §1, §2, §3, §4, §5, §6, §7, §8, §9

[2] = test system: phaseolus vulgaris (bean); experiment: as above; assay type: in vivo, Phaseolus vulgaris L.; settings: in vivo
Description: as §1
I = phaseolus vulgaris (bean)
as §2, §3, §4, §5, §6, §7, §8, §9

[3] = test system: triticum vulgare L. (wheat); experiment: as above; assay type: in vivo; settings: in vivo
Description: as §1
N = triticum vulgare L. (wheat)
as §2, §3, §4, §5, §6, §7, §8, §9

setaria glauca L. = experiment: herbicidal activity, soil treatment one day after sowing; assay type: in vivo
vicia sativa L. = experiment: as above; assay type: in vivo
Outline: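 Pre-emergence soil treatment one day after sowing; activity scored visually on a […] scale against untreated control, from slight difference (1) to no germination or total containment at emergence (4); intermediate activity recorded as both classes, preeminent value first.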

[4] = test system: echinocloa crus-galli R.S.; experiment: as above; assay type: in vivo
[5] = test system: beta vulgaris L. (sugar-beet); experiment: activity on agrarian species, soil treatment one day after sowing; assay type: in vivo; settings: in vivo
Description: as §1
H = beta vulgaris L. (sugar-beet)
as §2, §3, §4, §5, §6, §7, §8, §9

Row | Compound | activity on C, 0-4 scale (chenopodium album L.; 2 kg/ha) | activity on C, 0-4 scale (chenopodium album L.; 4 kg/ha) | activity on C, 0-4 scale (chenopodium album L.; 6 kg/ha) | activity on P, 0-4 scale (oryza sativa L. (rice)) | activity on B, 0-4 scale (artemisia vulgaris L.; 4 kg/ha) | activity on B, 0-4 scale (artemisia vulgaris L.; 6 kg/ha) | activity on A, 0-4 scale ([1]; 2 kg/ha) | activity on A, 0-4 scale ([1]; 4 kg/ha) | activity on A, 0-4 scale ([1]; 6 kg/ha) | activity on L, 0-4 scale (pisum sativum L. (pea)) | activity on G, 0-4 scale (avena sativa (oats)) | activity on O, 0-4 scale (zea mais L. (corn)) | activity on I, 0-4 scale [2] | activity on N, 0-4 scale [3] | activity on E, 0-4 scale (setaria glauca L.; 2 kg/ha) | activity on E, 0-4 scale (setaria glauca L.; 6 kg/ha) | activity on F, 0-4 scale (vicia sativa L.; 6 kg/ha) | activity on D, 0-4 scale ([4]; 2 kg/ha) | activity on D, 0-4 scale ([4]; 4 kg/ha) | activity on D, 0-4 scale ([4]; 6 kg/ha) | other results
1 | CCC(C)N(C(=O)c1ccc(C)c(Cl)c1)C(C)CC (centres unmarked) [PA445, 3-chloro,4-methyl-N,N-di-sec.butyl-benzamide] | 1 | 2-3 | 4 | 0 | 2 | 3-4 | 0-1 | 1 | 2 | 0 | 0 | 0 | 0 | 0 | 3-4 | 4 | 0-1 | 3 | 3-4 | 4 | activity on B, 0-4 scale (artemisia vulgaris L.; 2 kg/ha): 1; activity on M, 0-4 scale (solanum Lycopersicum L.): 0; activity on F, 0-4 scale (vicia sativa L.; 2 kg/ha): 0; activity on F, 0-4 scale (vicia sativa L.; 4 kg/ha): 0
2 | CCC(C)N(C(=O)c1cccc(Br)c1)C(C)CC (centres unmarked) [PA337/3/Br, 3-bromo-N,N-di-sec.butyl-benzamide] | 1 | 3 | 4 | 0 | 1 | 3 | 1 | 2-3 | – | 0 | 0 | 0 | – | 0 | 2-3 | 4 | – | 2 | 4 | 4 | activity on H, 0-4 scale [5]: 1; activity on E, 0-4 scale (setaria glauca L.; 4 kg/ha): 4; activity on F, 0-4 scale (vicia sativa L.; 2 kg/ha): 0-1
3 | CCC(C)N(C(=O)c1cc(Cl)c(Cl)cc1Cl)C(C)CC (centres unmarked) [PA338, 2,4,5-trichloro-N,N-di-sec.butyl-benzamide] | – | – | 2 | 0 | – | 1-2 | – | – | 2 | 0 | 0 | 0 | 0 | 0 | 2-3 | 3-4 | 0-1 | 2-3 | 3 | 3-4 | activity on E, 0-4 scale (setaria glauca L.; 4 kg/ha): 3
4 | CCCCN(C(=O)c1ccc(Cl)c(Cl)c1)C(C)CC (centres unmarked) [PA514, 3,4-dichloro-N-n.butyl,N-sec.butyl-benzamide] | – | – | 2 | 0 | – | 0-1 | – | – | 1 | 0 | 0 | 0 | 0 | 0 | 2 | – | 0-1 | 1 | 2-3 | 3 | activity on M, 0-4 scale (solanum Lycopersicum L.): 0; activity on E, 0-4 scale (setaria glauca L.; 4 kg/ha): 3
5 | CCC(C)N(C(=O)c1cccc(I)c1)C(C)CC (centres unmarked) [PA491, 3-iodo-N,N-di-sec.butyl-benzamide] | 2 | 2-3 | 3-4 | 0 | 3 | 4 | 1 | 1-2 | 3-4 | 0 | 0 | 0 | 0 | 0 | 3 | 4 | 1 | 3 | – | 4 | activity on B, 0-4 scale (artemisia vulgaris L.; 2 kg/ha): 1; activity on F, 0-4 scale (vicia sativa L.; 2 kg/ha): 0; activity on F, 0-4 scale (vicia sativa L.; 4 kg/ha): 0
6 | CCC(C)N(C(=O)c1ccc(Br)c(C)c1)C(C)CC (centres unmarked) [PA481, 3-methyl,4-bromo-N,N-di-sec.butyl-benzamide] | – | – | 2-3 | 0 | – | 3 | – | – | – | 0 | 0 | 0 | 0 | 0 | – | 3-4 | 0-1 | – | – | – | –
7 | CCN(CC)C(=O)c1cccc(Cl)c1 [PA321, 3,chloro-N,N-diethyl-benzamide, reference compound] | – | – | 1-2 | 2 | – | 2 | – | – | 1-2 | 2 | 1 | 0-1 | 1-0 | 2-3 | – | 1 | 1 | – | – | 1 | –
8 | CCC(C)N(C(=O)c1cc(Cl)ccc1Cl)C(C)CC (centres unmarked) [PA412, 2,5-dichloro-N,N-di-sec.butyl-benzamide] | – | – | 2-3 | 0 | – | 2 | – | – | 3 | 0 | 0 | 0 | 0 | 0 | 3 | 4 | 0 | 3 | – | 4 | activity on C, 0-4 scale (chenopodium album L.; 3 kg/ha): 1-2; activity on B, 0-4 scale (artemisia vulgaris L.; 3 kg/ha): 1; activity on A, 0-4 scale ([1]; 3 kg/ha): 2; activity on M, 0-4 scale (solanum Lycopersicum L.): 1; activity on E, 0-4 scale (setaria glauca L.; 1 kg/ha): 3; activity on E, 0-4 scale (setaria glauca L.; 3 kg/ha): 4; activity on F, 0-4 scale (vicia sativa L.; 3 kg/ha): 0; activity on D, 0-4 scale ([4]; 1 kg/ha): 1-2; activity on D, 0-4 scale ([4]; 3 kg/ha): 3-4
